Reference: PMC4145316, “Cytotoxic and Apoptosis-Inducing Activity of Triterpene Glycosides from Holothuria scabra and Cucumaria frondosa against HepG2 Cells” (Marine Drugs, 2014)
Converted amounts (≈) assume the structure as drawn.

Key:
[1] = test system: human cervical cancer (HeLa) cells; assay: MTT cytotoxicity assay, HeLa cells; format: cell-based; details: means ± SD (n = 3); for IC50: Homo sapiens, HeLa, read-out: IC50 (μg/mL) HeLa
Experimental: (§1) Human hepatoma (HepG2), human cervical cancer (HeLa), human leukemia (K562) and human liver (HL-7702) cells were obtained by Shanghai Institute of Biochemistry and Cell Biology, and maintained in the logarithmic phase of growth in RPMI-1640 complete medium supplemented with 2 mM L-glutamine (Sigma Chemical Co., Saint Louis, MO, USA), 100 IU/mL penicillin, 100 μg/mL streptomycin and 10% FCS at 37 °C under humidified air with 5% CO2.
(§2) The effect of compounds 1–13 on the viability of HepG2, HeLa, K562 and HL-7702 cells was determined by MIT assay as described previously. Briefly, the tumor and normal cells were seeded at 1 × 10^4 cells/well in a 96-well microtiter plate and incubated at 37 °C in a humidified atmosphere with 5% CO2. After 24 h, compounds 1–13, the positive drug CDDP or RPMI-1640 medium were added into each well, and the plates were incubated at 37 °C for the indicated time. Each concentration was repeated four wells. 50 μL of MTT solution (2 mg/mL) was added to each well 4 h before incubation end, and incubated further for 4 h. The plates were centrifuged (1400× g, 5 min) and the untransformed MTT was removed carefully by pipetting. To each well, 150 μL of DMSO was added and the absorbance was evaluated in an ELISA reader at 570 nm after 15 min. The inhibitory rates and 50% inhibitory concentrations (IC50) values towards cell viability were calculated by NDST software. Each test was performed in triplicate.

[2] = test system: human liver (HL-7702) cells; assay: MTT cytotoxicity assay, normal HL-7702 cells; format: cell-based; details: for IC50 (μg/mL) HL-7702 / IC50: MTT assay, normal hepatocytes, means ± SD (n = 3); for Ratio (HL-7702/HepG2): ratio of IC50 values against HL-7702 and HepG2 cells, selective cytotoxicity; for IC50: Homo sapiens, L02, read-out: IC50 (μg/mL) HL-7702
Experimental: as §1, §2

[3] = test system: human leukemia (K562) cells; assay: MTT cytotoxicity assay, K562 cells; format: cell-based; details: for IC50 (μg/mL) K562: means ± SD (n = 3); for IC50: Homo sapiens, K562, means ± SD (n = 3), read-out: IC50 (μg/mL) K562
Experimental: as §1, §2

[4] = test system: human hepatoma (HepG2) cells; assay: MTT cytotoxicity assay, HepG2 cells; format: cell-based; details: for IC50 (μg/mL) HepG2: means ± SD (n = 3); for IC50: Homo sapiens, HepG2, means ± SD (n = 3), read-out: IC50 (μg/mL) HepG2
Experimental: as §1, §2

[5] = test system: human gastric cancer MKN-45 cells; details: read-out: IC50 against MKN-45 cells; cited from earlier work
HeLa cells = test system: HeLa cells; set-up: method as in PMID 18288810; details: cited from earlier work

Molecule | IC50 (μg/mL) HeLa [1] [µg/mL] | IC50 (μg/mL) HL-7702 [2] [µg/mL] | Ratio (HL-7702/HepG2) [2] | IC50 (μg/mL) K562 [3] [µg/mL] | IC50 (μg/mL) HepG2 [4] [µg/mL] | IC50 [1] [µg/mL] | IC50 [2] [µg/mL] | IC50 [3] [µg/mL] | IC50 [4] [µg/mL] | Ratio (HL-7702/HepG2) ([2]; listed as 10) | IC50 [5] [nM] | IC50 against HeLa cells (HeLa cells) [µg/mL]
HS-1 [HS-1 (5)] | 3.20 ± 0.32 | 7.19 ± 0.20 | 1.18 | 12.95 ± 1.54 | 6.10 ± 0.33 |  |  |  |  |  |  | 
N.N.[Cl][Pt][Cl] [CDDP, cis-diamminedichloroplatinum, reference compound] | 3.41 ± 0.37 | 4.48 ± 0.41 | 2.18 | 2.99 ± 0.24 | 2.05 ± 0.13 |  |  |  |  |  |  | 
Scabraside D [Scabraside D (8)] | 3.84 ± 0.42 | 4.40 ± 0.22 | 1.32 | 10.06 ± 1.06 | 3.33 ± 0.33 |  |  |  |  |  |  | 
CO[C@@H]1[C@@H](O)[C@H](O[C@@H]2[C@@H](O)[C@H](O[C@H]3[C@H](O)[C@@H](O)[C@H](O[C@H]4[C@H](O[C@H]5CC[C@]6(C)C7=C[C@H](O)[C@]89C(=O)O[C@@](C)(C(O)CCC(C)C)[C@@]8(O)CC[C@@]9(C)[C@@H]7CC[C@H]6C5(C)C)OC[C@@H](OS(=O)(=O)[O-])[C@@H]4O)O[C@@H]3C)O[C@H](CO)[C@H]2O)O[C@H](CO)[C@H]1O.[Na+] (stereo partly drawn) [Holothurin A1 (7), Holothurin A1] | 2.84 ± 0.09 | 3.59 ± 0.05 | 1.24 | 6.50 ± 0.01 | 2.90 ± 0.21 |  |  |  |  |  |  | 
CO[C@@H]1[C@@H](O)[C@H](O[C@@H]2[C@@H](O)[C@H](O[C@H]3[C@H](O)[C@@H](O[C@@H]4OC[C@@H](O)[C@H](O)[C@H]4O)[C@H](O[C@H]4[C@H](OC5CC[C@]6(C)[C@H]7CCC89C(=O)O[C@@](C)(CCCC(C)C)C8[C@@H](OC(C)=O)C[C@@]9(C)C7=CC[C@H]6C5(C)C)OC[C@@H](OS(=O)(=O)O)[C@@H]4O)O[C@@H]3C)OC[C@H]2O)O[C@H](CO)[C@H]1O (stereo partly drawn) [Frondoside A (11), Frondoside A] |  |  | 1.31 |  |  | 3.3 ± 0.05 (≈ 2.51 µM) | 5.42 ± 0.98 (≈ 4.13 µM) | 3.76 ± 0.05 (≈ 2.86 µM) | 4.14 ± 0.57 (≈ 3.15 µM) |  |  | 
Frondoside A6 [Frondoside A6 (12)] | 3.75 ± 0.51 | 6.05 ± 0.67 | 2.39 | 6.59 ± 0.11 | 2.53 ± 0.66 |  |  |  |  |  |  | 
CO[C@@H]1[C@@H](O)[C@H](CO)O[C@@H](O[C@H]2[C@@H](O)[C@@H](O[C@H]3[C@@H](O)[C@@H](O[C@H]4OC[C@@H](O)[C@@H](O)[C@@H]4O)[C@H](O[C@H]4[C@H](O[C@H]5CC[C@@]6(C)[C@H](CC=C7[C@@H]6CC[C@]68C(=O)O[C@](C)(CCCC(C)C)[C@H]6[C@H](OC(C)=O)C[C@@]78C)C5(C)C)OC[C@@H](OS(=O)(=O)O)[C@H]4O)O[C@@H]3C)OC[C@@H]2O)[C@@H]1O [Frondoside A1 (10), Frondoside A1] | 2.03 ± 0.17 (≈ 1.55 µM) | 4.96 ± 1.10 (≈ 3.78 µM) | 2.60 | 2.21 ± 0.56 (≈ 1.68 µM) | 1.91 ± 0.03 (≈ 1.45 µM) |  |  |  |  | more than 2 |  | 
Holothurin B4 [Holothurin B4 (4)] | 2.71 ± 0.54 | 4.58 ± 0.54 | 1.69 | 3.55 ± 0.53 | 2.71 ± 0.12 |  |  |  |  |  |  | 
Scabraside B [Scabraside B (9)] | 4.44 ± 0.85 | 11.03 ± 1.37 | 1.51 | 11.85 ± 2.26 | 7.29 ± 0.62 |  |  |  |  |  |  | 
CC(C)CCC[C@]1(C)OC(=O)C23[C@@H](O)C=C4[C@@H](CC[C@H]5C(C)(C)C(O[C@@H]6OC[C@@H](OS(=O)(=O)O)[C@H](O)[C@H]6O[C@@H]6O[C@H](C)[C@@H](O)[C@H](O)[C@H]6O)CC[C@]45C)[C@]2(C)CC[C@@]31O (stereo partly drawn) [echinoside B, reference compound] |  |  |  |  |  |  |  |  |  |  | 180 | 
okhotosides B2 |  |  |  |  |  |  |  |  |  |  |  | 13.0
CO[C@@H]1[C@@H](O)[C@H](O[C@@H]2[C@@H](O)[C@H](O[C@H]3[C@H](O)[C@@H](O)[C@H](O[C@H]4[C@H](O[C@H]5CC[C@]6(C)C7=C[C@H](O)[C@@]89C(=O)O[C@@](C)(C%10CCC(C)(C)O%10)[C@@]8(O)CC[C@@]9(C)[C@@H]7CC[C@H]6C5(C)C)OC[C@@H](OS(=O)(=O)O)[C@@H]4O)O[C@@H]3C)O[C@H](CO)[C@H]2O)O[C@H](CO)[C@H]1O (stereo partly drawn) [Holothurin A (6), Holothurin A] |  |  | 1.11 |  |  | 3.76 ± 0.47 (≈ 3.14 µM) | 3.85 ± 0.32 (≈ 3.21 µM) | 8.94 ± 0.01 (≈ 7.45 µM) | 3.46 ± 0.33 (≈ 2.88 µM) |  | 2370 | 
CO[C@@H]1[C@@H](O)[C@H](O[C@@H]2[C@@H](O)[C@H](O[C@H]3[C@H](O)[C@@H](O)[C@H](O[C@H]4[C@H](O[C@H]5CC[C@]6(C)C7=C[C@H](O)C89C(=O)O[C@@](C)(CCC=C(C)C)[C@@]8(O)CC[C@@]9(C)C7CCC6C5(C)C)OC[C@@H](OS(=O)(=O)[O-])[C@@H]4O)O[C@@H]3C)O[C@H](CO)[C@H]2O)O[C@H](CO)[C@H]1O.[Na+] (stereo partly drawn) [24-Dehydro echinoside A (2), 24-Dehydro echinoside A] | 2.06 ± 0.27 | 3.75 ± 0.40 | 1.92 | 6.15 ± 0.24 | 1.95 ± 0.09 |  |  |  |  |  | 1600 | 
24-Dehydro frondoside A6 [24-Dehydro frondoside A6 (13)] | 3.16 ± 0.34 | 7.55 ± 0.83 | 2.12 | 5.61 ± 1.05 | 3.57 ± 0.54 |  |  |  |  |  |  | 
okhotosides B3 |  |  |  |  |  |  |  |  |  |  |  | 17.8
C[C@H]1O[C@@H](O[C@H]2[C@H](O[C@H]3CC[C@]4(C)C5=C[C@H](O)C67C(=O)O[C@@](C)(C8CCC(C)(C)O8)[C@@]6(O)CC[C@@]7(C)[C@@H]5CCC4C3(C)C)OC[C@@H](OS(=O)(=O)[O-])[C@@H]2O)[C@H](O)[C@@H](O)[C@@H]1O.[Na+] (stereo partly drawn) [Holothurin B (3), Holothurin B] | 2.05 ± 0.11 | 2.69 ± 0.45 | 1.50 | 3.64 ± 0.04 | 1.79 ± 0.02 |  |  |  |  |  | 1590 | 
